# Results taken from patent US20220389061A1, “IMMUNOMODULATORS” (priority 2019, published 2022).
# Starred links: 1 amine or outer side, 2 acyl side, 3 side chain; linkers in the order of their positions; H or OH if unused. Positions of bridges follow the written chain, without caps; N, C: chain ends. Non-standard residues stand in square brackets, D forms with d. Residues, ends and D or L forms follow the SMILES beside them. Groups on a side chain read outwards from the residue. *: point of attachment. Trp(1-CH2CO2Me) = COC(=O)Cn1cc(C[C@H](N)C(=O)O)c2ccccc21; Trp(1-CH2COOH) = N[C@@H](Cc1cn(CC(=O)O)c2ccccc12)C(=O)O; Benzoyl(2-(4-MeOPh)) = COc1ccc(-c2ccccc2C(=O)*)cc1; X65 = CC(C)(C)OC(=O)Nc1ccc(NC(=S)*)cc1; X13 = O=[N+]([O-])c1ccc(NC(=S)*)cc1; X75 = S=C(Nc1ccc(C2CC2)c2ccccc12)*; Hyp = O=C(O)[C@@H]1C[C@@H](O)CN1; X27 = Cc1cc([N+](=O)[O-])ccc1N*; X55 = COc1cc(NC(=S)*)cc(OC)c1; X69 = c1ccc(-c2ccc(N*)cc2)cc1; NMeNle = CCCC[C@H](NC)C(=O)O; X2 = c1ccc(-c2ccccc2N*)cc1; X52 = c1ccc2c(N*)c[nH]c2c1; X86 = CCOc1ccc(NC(=S)*)cc1; 4Abz = Nc1ccc(C(=O)O)cc1; NMeA = CN[C@@H](C)C(=O)O; Dab = NCC[C@H](N)C(=O)O; X39 = CCCCOc1ccc(N*)cc1; Dap = NC[C@H](N)C(=O)O; CO = O=C([*:1])[*:2]
# Target: T1, PD-1/PD-L1 (Homo sapiens, UniProt Q9NZQ7)
# T1 construct: TVMV protease site linker (C); made in house; host or cells: HEK293T cells
# Experiment: PD-1/PD-L1 Homogenous Time-Resolved Fluorescence (HTRF) binding assay
# Conditions: not given
# Source text: The ability of the compounds of formula (I) to bind to PD-L1 was investigated using a PD-1/PD-L1 Homogenous Time-Resolved Fluorescence (HTRF) binding assay.
# The interaction of PD-1 and PD-L1 can be assessed using soluble, purified preparations of the extracellular domains of the two proteins. The PD-1 and PD-L1 protein extracellular domains were expressed as fusion proteins with detection tags, for PD-1, the tag was the Fc portion of Immunoglobulin (PD-1-Ig) and for PD-L1 it was the 6 histidine motif (PD-L1-His). All binding studies were performed in an HTRF assay buffer consisting of dPBS supplemented with 0.1% […] bovine serum albumin and 0.05% (v/v) Tween-20. For the h/PD-L1-His binding assay, inhibitors were pre-incubated with PD-L1-His (10 nM final) for 15 m in 4 μl of assay buffer, followed by addition of PD-1-Ig (20 nM final) in 1 μl of assay buffer and further incubation for 15 m. HTRF detection was achieved using europium crypate-labeled anti-Ig (1 nM final) and allophycocyanin (APC) labeled anti-His (20 nM final). Antibodies were diluted in HTRF detection buffer and 5 μl was dispensed on top of the binding reaction. […] Additional binding assays were established between the human proteins PD-1-Ig/PD-L2-His (20 & 5 nM, respectively) and CD80-His/PD-L1-Ig (100 & 10 nM, respectively). […]
# T1 sequence (Q9NZQ7 18-239): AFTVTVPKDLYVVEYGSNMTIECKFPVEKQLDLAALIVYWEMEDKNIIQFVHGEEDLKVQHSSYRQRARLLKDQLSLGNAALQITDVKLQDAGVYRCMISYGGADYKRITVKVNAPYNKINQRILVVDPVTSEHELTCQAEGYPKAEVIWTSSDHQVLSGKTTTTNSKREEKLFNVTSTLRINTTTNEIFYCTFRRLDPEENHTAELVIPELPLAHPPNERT
row,Compound,IC50 [nM]
1,CCCC[C@H]1C(=O)N(C)[C@@H](CCCC)C(=O)N[C@@H](CC(C)C)C(=O)N[C@H](C(=O)NCC(N)=O)CSCC(=O)N[C@@H](Cc2ccc(O)cc2)C(=O)N(C)[C@@H](C)C(=O)N[C@@H](CC(N)=O)C(=O)N2CCC[C@H]2C(=O)N[C@@H](CNC(=O)Nc2ccc(-c3ccccc3)cc2)C(=O)N[C@@H](CC(C)C)C(=O)N2C[C@H](O)C[C@H]2C(=O)N[C@@H](Cc2c[nH]c3ccccc23)C(=O)N[C@@H](CCNC(=O)Nc2ccc(-c3ccccc3)cc2)C(=O)N[C@@H](Cc2cn(CC(=O)O)c3ccccc23)C(=O)N1C [Example 1011] ({CH2CO}-Y[NMeA]NP[Dap]([CO-X69])L[Hyp]W[Dab]([CO-X69])[Trp(1-CH2COOH)][NMeNle][NMeNle]LCG-NH2; thioether N-14),17
2,CCCC[C@H]1C(=O)N(C)[C@@H](CCCC)C(=O)N[C@@H](CC(C)C)C(=O)N[C@H](C(=O)NCC(N)=O)CSCC(=O)N[C@@H](Cc2ccc(O)cc2)C(=O)N(C)[C@@H](C)C(=O)N[C@@H](CC(N)=O)C(=O)N2CCC[C@H]2C(=O)N[C@@H](CNC(=O)Nc2ccc([N+](=O)[O-])cc2C)C(=O)N[C@@H](CC(C)C)C(=O)N2C[C@H](O)C[C@H]2C(=O)N[C@@H](Cc2c[nH]c3ccccc23)C(=O)N[C@@H](CCNC(=O)Nc2ccc([N+](=O)[O-])cc2C)C(=O)N[C@@H](Cc2cn(CC(=O)O)c3ccccc23)C(=O)N1C [Example 1122] ({CH2CO}-Y[NMeA]NP[Dap]([CO-X27])L[Hyp]W[Dab]([CO-X27])[Trp(1-CH2COOH)][NMeNle][NMeNle]LCG-NH2; thioether N-14),14

# Same assay, conditions: PD-L1-His 10 nM pre-incubated with inhibitor, PD-1-Ig 20 nM; read-out: HTRF IC50
row,Compound,IC50 [nM]
1,CCCC[C@H]1C(=O)N(C)[C@@H](CCCC)C(=O)N[C@@H](CC(C)C)C(=O)N[C@H](C(=O)NCC(N)=O)CSCC(=O)N[C@@H](Cc2ccc(O)cc2)C(=O)N(C)[C@@H](C)C(=O)N[C@@H](CC(N)=O)C(=O)N2CCC[C@H]2C(=O)N[C@@H](CNC(=O)Nc2c[nH]c3ccccc23)C(=O)N[C@@H](CC(C)C)C(=O)N2C[C@H](O)C[C@H]2C(=O)N[C@@H](Cc2c[nH]c3ccccc23)C(=O)N[C@@H](CCN)C(=O)N[C@@H](Cc2cn(CC(=O)O)c3ccccc23)C(=O)N1C [Example 3041] ({CH2CO}-Y[NMeA]NP[Dap]([CO-X52])L[Hyp]W[Dab][Trp(1-CH2COOH)][NMeNle][NMeNle]LCG-NH2; thioether N-14),0.3
2,CCCC[C@H]1C(=O)N(C)[C@@H](CCCC)C(=O)N[C@@H](CC(C)C)C(=O)N[C@H](C(=O)NCC(N)=O)CSCC(=O)N[C@@H](Cc2ccc(O)cc2)C(=O)N(C)[C@@H](C)C(=O)N[C@@H](CC(N)=O)C(=O)N2CCC[C@H]2C(=O)N[C@@H](CNC(=O)c2ccccc2-c2ccc(OC)cc2)C(=O)N[C@@H](CC(C)C)C(=O)N2C[C@H](O)C[C@H]2C(=O)N[C@@H](Cc2c[nH]c3ccccc23)C(=O)N[C@@H](CCN)C(=O)N[C@@H](Cc2cn(CC(=O)OC)c3ccccc23)C(=O)N1C [Example 1057] ({CH2CO}-Y[NMeA]NP[Dap](Benzoyl(2-(4-MeOPh)))L[Hyp]W[Dab][Trp(1-CH2CO2Me)][NMeNle][NMeNle]LCG-NH2; thioether N-14),3.2
3,CCCC[C@H]1C(=O)N(C)[C@@H](CCCC)C(=O)N[C@@H](CC(C)C)C(=O)N[C@H](C(=O)NCC(N)=O)CSCC(=O)N[C@@H](Cc2ccc(O)cc2)C(=O)N(C)[C@@H](C)C(=O)N[C@@H](CC(N)=O)C(=O)N2CCC[C@H]2C(=O)N[C@@H](CNC(=S)Nc2ccc([N+](=O)[O-])cc2)C(=O)N[C@@H](CC(C)C)C(=O)N2C[C@H](O)C[C@H]2C(=O)N[C@@H](Cc2c[nH]c3ccccc23)C(=O)N[C@@H](CCN)C(=O)N[C@@H](Cc2cn(CC(=O)O)c3ccccc23)C(=O)N1C [Example 1024] ({CH2CO}-Y[NMeA]NP[Dap](X13)L[Hyp]W[Dab][Trp(1-CH2COOH)][NMeNle][NMeNle]LCG-NH2; thioether N-14),3.2
4,CCCCOc1ccc(NC(=O)NCC[C@@H]2NC(=O)[C@H](Cc3c[nH]c4ccccc34)NC(=O)[C@@H]3C[C@@H](O)CN3C(=O)[C@H](CC(C)C)NC(=O)[C@H](CN)NC(=O)[C@@H]3CCCN3C(=O)[C@H](CC(N)=O)NC(=O)[C@H](C)N(C)C(=O)[C@H](Cc3ccc(O)cc3)NC(=O)CSC[C@@H](C(=O)NCC(N)=O)NC(=O)[C@H](CC(C)C)NC(=O)[C@H](CCCC)N(C)C(=O)[C@H](CCCC)N(C)C(=O)[C@H](Cc3cn(CC(=O)O)c4ccccc34)NC2=O)cc1 [Example 1119] ({CH2CO}-Y[NMeA]NP[Dap]L[Hyp]W[Dab]([CO-X39])[Trp(1-CH2COOH)][NMeNle][NMeNle]LCG-NH2; thioether N-14),3.4
5,CCCC[C@H]1C(=O)N(C)[C@@H](CCCC)C(=O)N[C@@H](CC(C)C)C(=O)N[C@H](C(=O)NCC(N)=O)CSCC(=O)N[C@@H](Cc2ccc(O)cc2)C(=O)N(C)[C@@H](C)C(=O)N[C@@H](CC(N)=O)C(=O)N2CCC[C@H]2C(=O)N[C@@H](CNC(=O)Nc2ccc(C(=O)OCC)cc2)C(=O)N[C@@H](CC(C)C)C(=O)N2C[C@H](O)C[C@H]2C(=O)N[C@@H](Cc2c[nH]c3ccccc23)C(=O)N[C@@H](CCN)C(=O)N[C@@H](Cc2cn(CC(=O)O)c3ccccc23)C(=O)N1C [Example 1069] ({CH2CO}-Y[NMeA]NP[Dap]([CO-4Abz-OEt])L[Hyp]W[Dab][Trp(1-CH2COOH)][NMeNle][NMeNle]LCG-NH2; thioether N-14),0.4
6,CCCC[C@H]1C(=O)N(C)[C@@H](CCCC)C(=O)N[C@@H](CC(C)C)C(=O)N[C@H](C(=O)NCC(N)=O)CSCC(=O)N[C@@H](Cc2ccc(O)cc2)C(=O)N(C)[C@@H](C)C(=O)N[C@@H](CC(N)=O)C(=O)N2CCC[C@H]2C(=O)N[C@@H](CNC(=S)Nc2cc(OC)cc(OC)c2)C(=O)N[C@@H](CC(C)C)C(=O)N2C[C@H](O)C[C@H]2C(=O)N[C@@H](Cc2c[nH]c3ccccc23)C(=O)N[C@@H](CCNC(=S)Nc2cc(OC)cc(OC)c2)C(=O)N[C@@H](Cc2cn(CC(=O)O)c3ccccc23)C(=O)N1C [Example 1086] ({CH2CO}-Y[NMeA]NP[Dap](X55)L[Hyp]W[Dab](X55)[Trp(1-CH2COOH)][NMeNle][NMeNle]LCG-NH2; thioether N-14),4.2
7,CCCC[C@H]1C(=O)N(C)[C@@H](CCCC)C(=O)N[C@@H](CC(C)C)C(=O)N[C@H](C(=O)NCC(N)=O)CSCC(=O)N[C@@H](Cc2ccc(O)cc2)C(=O)N(C)[C@@H](C)C(=O)N[C@@H](CC(N)=O)C(=O)N2CCC[C@H]2C(=O)N[C@@H](CNC(=S)Nc2ccc(OCC)cc2)C(=O)N[C@@H](CC(C)C)C(=O)N2C[C@H](O)C[C@H]2C(=O)N[C@@H](Cc2c[nH]c3ccccc23)C(=O)N[C@@H](CCN)C(=O)N[C@@H](Cc2cn(CC(=O)O)c3ccccc23)C(=O)N1C [Example 1026] ({CH2CO}-Y[NMeA]NP[Dap](X86)L[Hyp]W[Dab][Trp(1-CH2COOH)][NMeNle][NMeNle]LCG-NH2; thioether N-14),4.3
8,CCCC[C@H]1C(=O)N(C)[C@@H](CCCC)C(=O)N[C@@H](CC(C)C)C(=O)N[C@H](C(=O)NCC(N)=O)CSCC(=O)N[C@@H](Cc2ccc(O)cc2)C(=O)N(C)[C@@H](C)C(=O)N[C@@H](CC(N)=O)C(=O)N2CCC[C@H]2C(=O)N[C@@H](CNC(=S)Nc2ccc(C3CC3)c3ccccc23)C(=O)N[C@@H](CC(C)C)C(=O)N2C[C@H](O)C[C@H]2C(=O)N[C@@H](Cc2c[nH]c3ccccc23)C(=O)N[C@@H](CCNC(=S)Nc2ccc(C3CC3)c3ccccc23)C(=O)N[C@@H](Cc2cn(CC(=O)O)c3ccccc23)C(=O)N1C [Example 3058] ({CH2CO}-Y[NMeA]NP[Dap](X75)L[Hyp]W[Dab](X75)[Trp(1-CH2COOH)][NMeNle][NMeNle]LCG-NH2; thioether N-14),13
9,CCCC[C@H]1C(=O)N(C)[C@@H](CCCC)C(=O)N[C@@H](CC(C)C)C(=O)N[C@H](C(=O)NCC(N)=O)CSCC(=O)N[C@@H](Cc2ccc(O)cc2)C(=O)N(C)[C@@H](C)C(=O)N[C@@H](CC(N)=O)C(=O)N2CCC[C@H]2C(=O)N[C@@H](CNC(=S)Nc2ccc(NC(=O)OC(C)(C)C)cc2)C(=O)N[C@@H](CC(C)C)C(=O)N2C[C@H](O)C[C@H]2C(=O)N[C@@H](Cc2c[nH]c3ccccc23)C(=O)N[C@@H](CCN)C(=O)N[C@@H](Cc2cn(CC(=O)O)c3ccccc23)C(=O)N1C [Example 1040] ({CH2CO}-Y[NMeA]NP[Dap](X65)L[Hyp]W[Dab][Trp(1-CH2COOH)][NMeNle][NMeNle]LCG-NH2; thioether N-14),3.9

# Same assay, conditions: read-out: HTRF IC50; PD-L1-His 10 nM pre-incubated with inhibitor, PD-1-Ig 20 nM
row,Compound,IC50 [nM]
1,CCCC[C@H]1C(=O)N(C)[C@@H](CCCC)C(=O)N[C@@H](CC(C)C)C(=O)N[C@H](C(=O)NCC(N)=O)CSCC(=O)N[C@@H](Cc2ccc(O)cc2)C(=O)N(C)[C@@H](C)C(=O)N[C@@H](CC(N)=O)C(=O)N2CCC[C@H]2C(=O)N[C@@H](CNC(=O)Nc2ccccc2-c2ccccc2)C(=O)N[C@@H](CC(C)C)C(=O)N2C[C@H](O)C[C@H]2C(=O)N[C@@H](Cc2c[nH]c3ccccc23)C(=O)N[C@@H](CCNC(=O)Nc2ccccc2-c2ccccc2)C(=O)N[C@@H](Cc2cn(CC(=O)O)c3ccccc23)C(=O)N1C [Example 1014] ({CH2CO}-Y[NMeA]NP[Dap]([CO-X2])L[Hyp]W[Dab]([CO-X2])[Trp(1-CH2COOH)][NMeNle][NMeNle]LCG-NH2; thioether N-14),0.7
